Like-named read-outs stand apart in the source and are kept apart here.

Data set [1] concerns the target α7 nAChRs (Rattus norvegicus, UniProt Q05941). In words: In vitro competitive binding experiment with [125I] α-bgt as radioactive standard. Also on record: species or system SD rats. The conditions noted are these: 0.4 nM [125I] α-bgt, Cheng-Prusoff, mean of three measurements ± SD; read-out: Ki (nM), in vitro binding affinity to α7 nAChRs.
Data set [2] deals with T1, hERG potassium channel (Homo sapiens, UniProt Q12809).
T1 sequence (Q12809 whole entry): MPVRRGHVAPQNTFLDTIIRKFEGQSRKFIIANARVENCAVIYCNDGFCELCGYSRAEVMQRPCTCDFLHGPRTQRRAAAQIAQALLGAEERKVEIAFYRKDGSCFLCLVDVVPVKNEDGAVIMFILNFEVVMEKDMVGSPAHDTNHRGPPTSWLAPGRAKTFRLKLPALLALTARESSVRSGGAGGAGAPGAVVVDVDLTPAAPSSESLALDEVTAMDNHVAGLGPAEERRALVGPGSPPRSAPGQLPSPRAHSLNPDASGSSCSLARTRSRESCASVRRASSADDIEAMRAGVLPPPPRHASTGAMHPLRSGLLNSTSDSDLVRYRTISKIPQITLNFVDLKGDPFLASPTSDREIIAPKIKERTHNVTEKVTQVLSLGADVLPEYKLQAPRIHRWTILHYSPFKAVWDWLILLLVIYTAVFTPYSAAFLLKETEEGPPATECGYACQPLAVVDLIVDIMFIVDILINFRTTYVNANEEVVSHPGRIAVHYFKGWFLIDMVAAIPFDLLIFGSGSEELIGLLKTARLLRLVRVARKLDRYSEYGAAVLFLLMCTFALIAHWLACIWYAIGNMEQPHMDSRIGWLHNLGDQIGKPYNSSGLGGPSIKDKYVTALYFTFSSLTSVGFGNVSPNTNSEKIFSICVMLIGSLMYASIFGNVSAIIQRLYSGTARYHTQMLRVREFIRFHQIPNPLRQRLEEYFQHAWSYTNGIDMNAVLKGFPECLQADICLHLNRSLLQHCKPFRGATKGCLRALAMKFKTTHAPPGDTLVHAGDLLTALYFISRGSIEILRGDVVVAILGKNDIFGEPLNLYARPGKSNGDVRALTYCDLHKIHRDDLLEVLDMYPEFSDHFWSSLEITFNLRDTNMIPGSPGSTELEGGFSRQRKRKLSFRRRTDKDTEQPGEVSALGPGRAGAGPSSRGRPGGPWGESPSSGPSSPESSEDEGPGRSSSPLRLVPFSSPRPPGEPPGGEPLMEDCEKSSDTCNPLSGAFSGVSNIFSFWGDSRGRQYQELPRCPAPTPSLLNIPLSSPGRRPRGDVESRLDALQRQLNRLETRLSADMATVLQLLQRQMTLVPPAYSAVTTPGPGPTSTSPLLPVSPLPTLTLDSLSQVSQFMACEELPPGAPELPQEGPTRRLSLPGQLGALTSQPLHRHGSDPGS
For data set [3], the target named is T1, hERG potassium channel. In words: in vitro.
For data set [4], the target named is T1, hERG potassium channel. In words: In vitro hERG potassium channel inhibition experiment (conventional patch clamp, HEK293 cell line stably expressing hERG). (In general: hERG is a cardiac potassium channel; its block is linked to QT prolongation.)
For data set [5] the following is noted: 5 min after administration; cited from earlier work.
For data set [6] the following is noted: 5 min after the administration, cited from earlier work.
Data set [7] is described as follows: Measurement of half lethal dosage LD50 (tail vein injection). The format is in vivo, Kunming mice. The settings on record: both sexes, Kunming, mouse, in vivo, intravenous, mice, tail vein injection. An excerpt:
(§1) There are many methods for calculating LD50, among which the weighted probit method created by Bliss and then developed by later researchers was the most accurate and rigorous, and was the standard LD50 calculation method recognized by researchers. This calculation method will be used herein to solve the LD50 value of the compound to be measured to the mice.

Data set [8] relates to Kunming mice. Described as above. The format is in vivo. The settings on record: for Death Rate (%): tail vein.
Source text: as §1

Where [9] appears, read: IC50 (μM), hERG potassium current, Table 7 and text, n=3.
Setting [10] is: hERG Potassium Channel IC50 (nM), Table 8.

α7 nAChRs, sequence (Q05941 23-502): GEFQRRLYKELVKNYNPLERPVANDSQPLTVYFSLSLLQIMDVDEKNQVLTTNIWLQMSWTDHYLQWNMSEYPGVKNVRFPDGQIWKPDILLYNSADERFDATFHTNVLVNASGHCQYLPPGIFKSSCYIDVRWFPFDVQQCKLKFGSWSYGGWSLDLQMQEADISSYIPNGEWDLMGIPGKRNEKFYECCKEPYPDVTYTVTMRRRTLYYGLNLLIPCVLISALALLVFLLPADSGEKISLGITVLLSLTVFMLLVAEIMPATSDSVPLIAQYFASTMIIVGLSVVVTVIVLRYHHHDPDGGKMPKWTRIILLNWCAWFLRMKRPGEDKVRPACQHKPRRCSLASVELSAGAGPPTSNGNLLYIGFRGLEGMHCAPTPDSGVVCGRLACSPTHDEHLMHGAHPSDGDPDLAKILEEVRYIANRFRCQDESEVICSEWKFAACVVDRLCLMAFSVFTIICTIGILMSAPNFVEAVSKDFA

On to `CN1CC2CN(c3ccc(-c4ccc(OCCF)cc4)nn3)CC2C1` (stereo not shown) [III-24], for which the Ki in data set [1] was 445 ± 31.5 nM.

On to `O=C1c2cc(F)ccc2-c2ccc(N3CCN4CCC3CC4)cc21` [II-6], for which the “IC50(hERG)/IC50(α7 nAChR)” value in data set [2] is reported as 22. In data set [3], this molecule registered an inhibition at 5 min, 0.4 µM of 42 ± 2%; an inhibition at 5 min, 2 µM of 80 ± 1%; an inhibition at 5 min, 10 µM of 96 ± 1%; an inhibition at 5 min, 50 µM of 100%. In data set [4] (setting [9]), the IC50 was 0.46 ± 0.055 µM. For the same molecule, the half-maximal inhibitory concentration (IC50) in data set [4] (setting [10]) is 0.46 ± 0.055 µM.

Consider `CN1CC2CN(c3ccc(-c4ccc5c(ccn5CCF)c4)nc3)CC2C1` (stereo not shown) [III-19], for which the Ki in data set [1] came out at 456 ± 152 nM.

`Fc1ccc(-c2ccc3oc(N4CCN5CCC4CC5)nc3n2)cn1` [Compound I-10]: the inhibition constant (Ki) in data set [1] stood at 378 ± 119 nM.

In the case of `COc1cc(N)c(Cl)cc1C(=O)NC1CCN(CCCOc2ccc(F)cc2)CC1OC` (stereo not shown) [Cisapride, reference compound], in data set [3], the inhibition at 5 min, 0.001 µM came to 8 ± 2%; the inhibition at 5 min, 0.01 µM was 44 ± 1%; the inhibition at 5 min, 0.1 µM amounted to 84 ± 1%.

With `O=S1(=O)c2cc(N3CCN4CCC3CC4)ccc2-c2cccc([18F])c21` [[^18F] ASEM], the “highest brain uptake value (reported)” value in data set [5] is recorded as 7.5 % ID/g. In data set [6] (corpus striatum), the “uptake value in corpus striatum (reported)” value was 6.0 % ID/g. In data set [6] (cortex), the “uptake value in cortex (reported)” value was 7.2 % ID/g. For the same molecule, in data set [6] (hippocampus), the “uptake value in hippocampus (reported)” value is reported as 5.0 % ID/g.

Turning to `O=C1c2cc(N3CCN4CCC3CC4)ccc2-c2cccc(F)c21` [II-15], the 50% lethal dose (LD50) at 14 days in data set [7] (weighted probit method, read-out: half lethal dosage LD50) is 53.7 mg/kg; in data set [7] (read-out: 95% confidence limit of LD50), 50.4 to 57.2 mg/kg. The “Observation Record” value was “Symptoms of convulsion, and trembling” in data set [8] (43.74 mg/kg); “Died after convulsion of 20 min; survivors” in data set [8] (54 mg/kg); “Died after convulsion of 6-10 min; survivors” in data set [8] (60 mg/kg); “Died after convulsion of about 10 s: survivors” in data set [8] (64.8 mg/kg). Also, the “Number of Death” value in data set [8] (43.74 mg/kg, 10 mice) is given as 1; in data set [8] (48.6 mg/kg, 9 mice), 2; in data set [8] (54 mg/kg, 10 mice), 6; in data set [8] (60 mg/kg, 10 mice), 7; in data set [8] (64.8 mg/kg, 10 mice) it was 9. In addition, the “Death Rate (%)” value was 10% in data set [8] (43.74 mg/kg, 14 days observation); 22% in data set [8] (48.6 mg/kg, 14 days observation); 60% in data set [8] (54 mg/kg, 14 days observation); 70% in data set [8] (60 mg/kg, 14 days observation); 90% in data set [8] (64.8 mg/kg, 14 days observation). Besides, in data set [8] (14 days observation), the “weights of surviving mice in the observation period” value is recorded as “increased normally”. In addition, the “inappetence after the administration, then recovered to normal” value in data set [8] (all administrated mice) is at most 1 h. The “tissues and organs of dissected dead mice” value in data set [8] (all dose groups) is recorded as “no abnormality was found”. Further, the “IC50(hERG)/IC50(α7 nAChR)” value in data set [2] was determined as 74. For the same molecule, the inhibition at 5 min, 0.4 µM in data set [3] was 45 ± 1%. In data set [3], this molecule displayed an inhibition at 5 min, 2 µM of 82 ± 1%. In data set [3], the inhibition at 5 min, 10 µM worked out at 97 ± 1%. This molecule registered an inhibition at 5 min, 50 µM in data set [3] of 98 ± 1%. The 50% inhibitory concentration (IC50) in data set [4] (setting [9]) and in data set [4] (setting [10]) was 0.46 ± 0.011 µM throughout.

In data set [3], `Nc1cccc2c1C(=O)c1cc(N3CCN4CCC3CC4)ccc1-2` [II-14] came in with an inhibition at 5 min, 0.4 µM of 6 ± 1%; an inhibition at 5 min, 2 µM of 20 ± 2%; an inhibition at 5 min, 10 µM of 25 ± 3%; an inhibition at 5 min, 50 µM of 53 ± 4%. In addition, in data set [4] (setting [9]), the IC50 stood at 49.7 ± 15.9 µM. Moreover, in data set [4] (setting [10]), the IC50 was 49.7 ± 15.9 µM.

In data set [3], `Nc1ccc2c(c1)C(=O)c1cc(N3CCN4CCC3CC4)ccc1-2` [II-5] showed an inhibition at 5 min, 0.4 µM of 19 ± 1%; an inhibition at 5 min, 2 µM of 42 ± 1%; an inhibition at 5 min, 10 µM of 79 ± 2%; an inhibition at 5 min, 50 µM of 98%. In data set [4] (setting [9]), this molecule yielded a half-maximal inhibitory concentration (IC50) of 2.5 ± 0.15 µM. The molecule further yielded an IC50 in data set [4] (setting [10]) of 2.5 ± 0.15 µM.

Broadly, the Ki is the dissociation constant of the complex between target and ligand, obtained from inhibition or displacement. As usually defined, the inhibition is the change of the read-out against control, counted positive when it falls. High values mean strong suppression, low ones little suppression. As usually defined, the IC50 is the concentration that inhibits the measured activity by half. A low value points to greater potency in that assay. In general, LD50 refers to the dose expected to kill half of the subjects tested.
